Experiments:
Design in all cases: key: “+” indicates that the compound exibits inhibitory activity; “−” indicates that low or no inhibitory activity was observed
[1] = target: T1, E3 (His-APC11/APC2-"APC") (Homo sapiens, UniProt Q9NYG5+Q9UJX6); experiment: Plate-based E3 ligase assay (APC FLAG), auto-ubiquitination; format: biochemical; settings: 8 concentrations tested
How it was run: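 His-APC11/APC2 auto-ubiquitination was run in casein-blocked nickel plates for 1 h at room temperature, with E1 at 5 ng/well, UbcH5c at 20 ng/well and APC at 100 ng/well. Buffer was 62.5 mM Tris pH 7.6, 3 mM MgCl2, 1 mM DTT, 2.5 mM ATP and Flag-ubiquitin at 100 ng/well. Detection used anti-Flag/HRP chemiluminescence, and IC50 was typically from 6 or 8 concentrations versus a DMSO control.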

[2] = target: E3 MDM2 (Homo sapiens, UniProt Q00987); experiment: Plate-based autoubiquitination of the E3 MDM2 (MDM2-FLAG); format: biochemical; settings: 8 concentrations tested
Description: E3 (His-APC11/APC2-“APC”) auto-ubiquitination was measured as described in U.S. patent application Ser. No. 09/826,312 (Publication No. US-2002-0042083-A1), which is incorporated herein in its entirety. Details of the protocol are described below. Activity in the presence of the compound was determined relative to a parallel control in which only DMSO was added. Values of the IC50 were typically determined using 6 or 8 different concentrations of the compound, although as few as 2 concentrations may be used to approximate the IC50 value.
Nickel-coated 96-well plates (Pierce 15242) were blocked for 1 hour with 100 μl of blocking buffer at room temperature. The plates were washed 4 times with 225 μl of 1×PBS and 80 μl of the reaction buffer were added that contained 100 ng/well of Flag-ubiquitin. To this, 10 μl of the test compound diluted in DMSO were added. After the test compound was added, 10 μl of E1 (human), E2 (Ubch5c), and APC in Protein Buffer was added to obtain a final concentration of 5 ng/well of E1, 20 ng/well of E2 and 100 ng/well of APC. The plate were shaken for 10 minutes and incubated at room temperature for 1 hour. After incubation, the plates were washed 4 times with 225 μl of 1×PBS and 100 μl/well of Antibody Mix were added to each well. The plates were incubate at room temperature for another hour after which they were washed 4 times with 225 μl of 1×PBS and 100 μl/well of Lumino substrate were added to each well. The luminescence was measured by using a BMG luminescence microplate reader.
(§1) To prepare the Blocking Buffer (1 liter; 1% Casein in 1×PBS), 10 grams of Casein (Hammersten Grade Casein from Gallard-Schlesinger Inc. #440203) were placed into 1 liter of 1×PBS, stirred on a hot plate and kept between 50-60° C. for an hour. The buffer was allowed to cool to room temperature and then filtered using a Buchner Funnel (Buchner filter funnel 83 mm 30310-109) and Whatman filter paper (Whatman Grade No. 1 Filter paper 28450-070). It was stored at 4° C. until used.
(§2) The reaction buffer consisted of 62.5 mM Tris pH 7.6 (Trizma Base—Sigma T-8524), 3 mM MgCl2 (Magnesium Chloride—Sigma M-2393), 1 mM DTT (Sigma D-9779), 2.5 mM ATP (Roche Boehringer Mann Corp. 635-316), 100 ng/well of Flag-ubiquitin, 0.1% BSA (Sigma A-7906), and 0.05% Tween-20 (Sigma P-7949).
(§3) The Protein Buffer consisted of 20 mM Tris pH 7.6, 10% glycerol (Sigma G-5516) and 1 mM DTT.
(§4) The antibody mix consisted of 0.25% BSA (Sigma A-7906) in 1×PBS, 1/50,000 anti-Flag (Sigma F-3165), 1/100,000 of anti-Mouse IgG-HRP (Jackson Immunoresearch #115-035-146).
The substrate mix consisted of SuperSignal Substrate from Pierce (catalog number 37070ZZ) and was prepared by mixing 100 ml of the peroxide solution, 100 ml of the enhancer solution and 100 ml of Milli-Q® water.
In similar manner, autoubiquitination of the E3 MDM2 was determined (MDM2-FLAG). Further instruction in such assays can be found in U.S. patent application Ser. No. 10/108,767 (Publication No. US-2003-0104474 A1), which is incorporated herein in its entirety.

[3] = target: MDM2 / p53 substrate (Homo sapiens, UniProt Q00987); experiment: Plate-based MDM2 substrate ligation assay (MDM2-P53-FLAG); format: biochemical; settings: 8 concentrations tested
Source text: This assay was preformed essentially as described in WO 03/076899 (page 77, line 5 to page 80, line 13), hereby incorporated by reference in its entirety.

[4] = test system: A549 cells; experiment: Cell proliferation assay, photographic image analysis of proliferation, apoptosis and death (PAD assay), A549; format: cell-based; settings: 6 concentrations tested
How it was run: (§5)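 Cells grown in RPMI with 5% FBS (2,000/well) and dosed 24 h after plating with 6.3-fold dilutions in duplicate (master plate 500× final, top 10 mM stock). After 48 h at 37 °C, cells formamide-fixed and DAPI-stained. Image analysis counted live, apoptotic and dead cells.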

[5] = test system: HeLa cells; experiment: Cell proliferation assay, photographic image analysis of proliferation, apoptosis and death (PAD assay), HeLa; format: cell-based; settings: 6 concentrations tested
How it was run: as §5

[6] = test system: HCT116 cells; experiment: Cell proliferation assay, photographic image analysis of proliferation, apoptosis and death (PAD assay), HCT116; format: cell-based; settings: 6 concentrations tested
Description: A549 (ATCC# CCL-185), HeLa (ATCC# CCL-2), HCT116 (ATCC# CCL-247), and H1299 (ATCC# CRL-5803) cells were maintained in T175 flasks following the ATCC recommended media and handling procedures. Flasks reaching approximately 70% confluency were trypsinized and resuspended in RPMI media (Cell-Gro catalog number 10-040-CM) modified to contain 5% FBS, 100 ug/mlPen/Strep (Cell-Gro catalog number 30-002-CL), and 0.3 mg/ml L-Glutamine (Cell-Gro catalog number 25-003-CL). A 20,000 cells/ml solution was made for plating. Cells were plated in black Packard 96 well plates by placing 100 μl per well (2,000 cells per well).
Compounds and additional media were added 24 hours after cell plating. A compound master plate was created with concentrations 500 times greater than the final concentration added to the cells. All compound testing was done in duplicate using 6.3 fold dilutions starting with 10 mM. All outside wells (and 4 internal wells) were DMSO controls. Taxol and at least one additional control were run on all plates. Three microliters of the compound master plate were added to deep well blocks containing 750 μl of RPMI media. One hundred microliters were transferred from the compound/media deep well blocks to the plated cells resulting in a 500 fold dilution of the compounds. Cells were grown at 37° C., 5% CO2 for 48 hours.
Cells to be analyzed by photography were fixed and stained. One hundred microliters of media were removed and 100 μl of 9.3% […] was added to each well. Plates were left on the benchtop for 45 minutes. A staining solution containing 1.55 μl of 1 mg/ml DAPI added to 18.75 ml PBS was warmed for 15 minutes at 37° C. The cells were aspirated prior to washing with 100 μl of PBS. Seventy microliters of PBS were aspirated and 170 μl of the DAPI solution were added to each well of fixed cells. Plates were left at room temperature for one hour then aspirated and washed twice with 100 μl of PBS. The stained cells were left at 4° C. for a minimum of 16 hours before photographic analysis with Array Scan II (Cellomics). Analysis of the photographic images to determine numbers of live cells (proliferation), apoptotic cells and dead cells, were according to the methods described in U.S. Provisional Patent Application Ser. No. 60/406,714, which incorporated herein in its entirety.

[7] = test system: A549 cells; experiment: Non-photographic proliferation analysis (Promega Cell titer Aqueous), A549; format: cell-based; settings: 6 concentrations tested
How it was run: (§6)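 HeLa, A549 and HCT116 cells, 2,000 per well in RPMI with 5% FBS, were given compounds 24 h after plating as 6.3-fold duplicate dilutions from 10 mM stock, diluted 500-fold into the wells. After 48 h at 37° C, 5% CO2, Cell titer Aqueous reagent was added for 45 min and absorbance read at 490 nm.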

[8] = test system: HeLa cells; experiment: Non-photographic proliferation analysis (Promega Cell titer Aqueous), HeLa; format: cell-based; settings: 6 concentrations tested
How it was run: as §6

[9] = target: T1, E3 (His-APC11/APC2-"APC"); experiment: Gel-based E3 ligase assay, auto-ubiquitination; format: biochemical
Description: E3 (His-APC11/APC2-“APC”) auto-ubiquitination was measured as described in U.S. patent application Ser. No. 09/826,312 (Publication No. U.S. Pat. No. 2,002,0042083-A1), which is incorporated herein in its entirety. Details of the protocol are described below. Activity in the presence of compound was determined relative to a parallel control in which only DMSO is added. The IC50 values were typically determined using 6 or 8 different concentrations of compound, although as few as 2 concentrations may be used to approximate the IC50 values.
Corning 96-well plates (Corning 3650) were blocked with 100 μl of Blocking Buffer for 1 hour at room temperature. The plates were washed 4 times with 225 μl of 1×PBS and 80 μl of the reaction buffer were added that contained 100 ng/well of Flag-ubiquitin. To this, 10 μl of the test compound diluted in DMSO were added. After the test compound was added, 10 μl of E1 (human), E2 (Ubch5c) and APC in Protein Buffer were added to obtain a final concentration of 5 ng/well of E1, 20 ng/well of E2 and 100 ng/well APC. The plates were shaken for 10 minutes and incubated at room temperature for 1 hour. After incubation, the reaction was stopped by adding 25 μl of loading buffer (non-reducing) per well and the plates were heated at 95° C. for 5 minutes. An aliquot of each well was run on a 10% NugePage Gel and analyzed by Western Blot using the antibody mix and Lumino substrate described below. The luminescence was measured by using a BMG luminescence microplate reader.
as §1, §2, §3, §4
The substrate mix consisted of SuperSignal Substrate from Pierce (catalog number 37070ZZ) and was prepared by mixing 100 ml of the peroxide solution, 100 ml of the enhancer solution and 100 ml of Millie water.

T1 sequence (Q9NYG5 whole entry): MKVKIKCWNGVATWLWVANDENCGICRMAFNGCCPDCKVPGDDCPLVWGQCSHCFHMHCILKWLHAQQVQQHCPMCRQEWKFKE
T1 sequence (Q9UJX6 whole entry): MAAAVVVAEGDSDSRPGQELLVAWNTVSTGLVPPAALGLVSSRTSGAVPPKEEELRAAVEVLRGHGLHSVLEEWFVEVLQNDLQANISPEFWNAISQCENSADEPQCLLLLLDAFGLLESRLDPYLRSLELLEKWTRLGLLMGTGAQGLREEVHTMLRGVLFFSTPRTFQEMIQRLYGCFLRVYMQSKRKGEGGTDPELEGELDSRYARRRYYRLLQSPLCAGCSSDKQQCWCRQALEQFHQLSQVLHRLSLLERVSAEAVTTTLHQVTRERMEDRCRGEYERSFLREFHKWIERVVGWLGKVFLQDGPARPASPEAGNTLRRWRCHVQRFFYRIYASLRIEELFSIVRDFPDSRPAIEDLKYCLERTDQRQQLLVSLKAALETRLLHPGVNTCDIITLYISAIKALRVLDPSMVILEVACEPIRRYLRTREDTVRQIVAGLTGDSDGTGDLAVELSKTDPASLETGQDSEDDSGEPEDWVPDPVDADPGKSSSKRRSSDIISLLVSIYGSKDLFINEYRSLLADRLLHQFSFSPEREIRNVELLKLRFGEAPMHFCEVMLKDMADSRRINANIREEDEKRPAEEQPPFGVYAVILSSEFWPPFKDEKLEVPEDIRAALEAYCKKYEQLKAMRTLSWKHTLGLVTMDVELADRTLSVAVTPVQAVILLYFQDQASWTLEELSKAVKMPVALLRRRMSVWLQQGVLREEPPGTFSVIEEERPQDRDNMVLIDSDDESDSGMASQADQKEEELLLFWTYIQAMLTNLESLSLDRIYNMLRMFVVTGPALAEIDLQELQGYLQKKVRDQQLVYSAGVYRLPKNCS
Chain of MDM2 / p53 substrate (Q00987 whole entry): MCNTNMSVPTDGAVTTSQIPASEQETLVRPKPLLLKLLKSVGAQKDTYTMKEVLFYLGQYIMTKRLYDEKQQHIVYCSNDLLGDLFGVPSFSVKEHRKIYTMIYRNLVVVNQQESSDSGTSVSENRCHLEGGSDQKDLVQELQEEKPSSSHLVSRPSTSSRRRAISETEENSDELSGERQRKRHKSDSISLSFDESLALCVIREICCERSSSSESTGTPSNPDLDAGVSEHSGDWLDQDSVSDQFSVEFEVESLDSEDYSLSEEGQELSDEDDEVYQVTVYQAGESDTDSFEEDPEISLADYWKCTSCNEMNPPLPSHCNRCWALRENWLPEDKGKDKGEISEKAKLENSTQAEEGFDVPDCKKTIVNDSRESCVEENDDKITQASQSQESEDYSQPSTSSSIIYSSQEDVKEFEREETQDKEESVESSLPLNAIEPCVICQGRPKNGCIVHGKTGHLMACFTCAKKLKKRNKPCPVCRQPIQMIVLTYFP
Chain of E3 MDM2 (Q00987 whole entry): as above

APC Flag (gel) [9] | Structure (SMILES) | APC Flag 8 pt [1] | MDM2-Auto Flag 8 pt [2] | MDM2-P53 Flag 8 pt [3] | PAD Assay, A549 6 pt [4] | PAD Assay, HELA 6 pt [5] | PAD Assay, HCT116 6 pt [6] | Cell Titer-Aqueous, A549 6 pt [7] | Cell Titer-Aqueous, HELA 6 pt [8]
 | O=[N+]([O-])c1ccc(Oc2c(Cl)cc(S(=O)(=O)Nc3cc(Cl)ccc3Cl)cc2Cl)c(Cl)c1 [Compound 203, 3,5-dichloro-4-(2-chloro-4-nitrophenoxy)-N-(2,5-dichlorophenyl)benzene sulfonamide] | + | + | + | + | + | + | + | +
 | O=[N+]([O-])c1ccc(Oc2c(Cl)cc(S(=O)(=O)Nc3ccc(Cl)cc3[N+](=O)[O-])cc2Cl)c(Cl)c1 [Compound 215, 3,5-dichloro-4-(2-chloro-4-nitrophenoxy)-N-(4-chloro-2-nitrophenyl)benzene sulfonamide] | + | + | + | + | + | + | + | +
+ (gel) | O=[N+]([O-])c1ccc(Oc2c(Cl)cc(S(=O)(=O)Nc3ccc4cc[nH]c4c3)cc2Cl)c(Cl)c1 [Example 172, 3,5-dichloro-4-(2-chloro-4-nitrophenoxy)-N-1H-indol-6-ylbenzenesulfonamide] |  |  |  | + | + |  | + | +
− (gel) | CSc1ccccc1NS(=O)(=O)c1cc(Cl)c(Oc2ccc([N+](=O)[O-])cc2Cl)c(Cl)c1 [Example 191, 3,5-dichloro-4-(2-chloro-4-nitrophenoxy)-N-[2-(methylthio)phenyl]benzenesulfonamide] |  |  |  | + | + | + |  | 
− (gel) | NC(=O)c1ccccc1NS(=O)(=O)c1cc(Cl)c(Oc2ccc([N+](=O)[O-])cc2Cl)c(Cl)c1 [Example 193, 2-({[3,5-dichloro-4-(2-chloro-4-nitrophenoxy)phenyl]sulfonyl}amino)benzamide] |  |  |  |  |  |  |  | 
− (gel) | O=[N+]([O-])c1ccc(Oc2c(Cl)cc(S(=O)(=O)Nc3ccncc3)cc2Cl)c(Cl)c1 [Example 221, 3,5-dichloro-4-(2-chloro-4-nitrophenoxy)-N-pyridin-4-ylbenzenesulfonamide] |  |  |  | − | − |  | − | −
− (gel) | O=[N+]([O-])c1ccc(Oc2c(Cl)cc(S(=O)(=O)NCCc3ccc(O)cc3)cc2Cl)c(Cl)c1 [Example 223, 3,5-dichloro-4-(2-chloro-4-nitrophenoxy)-N-[2-(4-hydroxyphenyl)ethyl]benzene-sulfonamide] |  |  |  |  |  |  | − | −
